From US4016176A, “Esters of 4-hydroxy-2,9-dioxatricyclo[4.3.1.0^3,7 ] decanes and processes for their production” (Kali-Chemie Pharma GmbH, priority 1973, dated 1977)

Key:
white mice [1] = experiment: spasmolytic effect
[2] = narcosis, Example 17 compound; details: in vivo
[3] = acute toxicity of Example 17 compound, p.o.; details: mouse, in vivo, po
mouse [4] = experiment: ataxia in mice; assay type: in vivo; details: mouse; for C - ataxia: dose required to produce ataxia in a mouse: Table 3
Excerpt: (§1) In the Table 3 which follows are listed results of tests pertaining to the effectiveness of various compounds that are disclosed herein. The results are included in the several columns under letters whose significance is as follows:
C - ataxia: Dose in milligrams per kilogram of body weight required to produce ataxia in a mouse.

mouse [5] = experiment: sedative effect, comparison of esters with 4-hydroxy compounds; assay type: in vivo; details: for sedative effect or ataxia relative to the 4-hydroxy compound (in words): 4β-esters compared with Compound No. 1246; for sedative effect relative to the corresponding hydroxy compound (in words): compared with corresponding hydroxy compounds, Compound No. 1561
Excerpt: The effectiveness of the 2,9-dioxatricyclo[4.3.1.0^3,7 ]decanes of the present invention as narcotics is obviously sterospecifically related to the 4αconfiguration. Particularly surprising is the narcotic effect of the esters as compared to the 4-hydroxy compounds. Whereas nearly 300 or even 800 milligrams per kilogram of the 4-hydroxy compounds are required to induce narcosis, the required doses of the carbamates is only at most 100 milligrams per kilogram and their toxicity is in general very low.

[6] = acute toxicity (LD50) in mice; assay type: in vivo, mouse; details: mouse, in vivo, mouse
Excerpt: as §1
(§2) A - lethal dose (LD50) to mice in milligrams per kilogram of body weight of the mouse when administered per os.
(§3) B - lethal dose (LD50) to mice in milligrams per kilogram of body weight of the mouse when administered intraperitoneally.
(§4) A. lethal dose (LD50) to mice in milligrams per kilogram body weight of the mouse when administered per os.
(§5) B. lethal dose (LD50) to mice in milligrams per kilogram body weight of the mouse administered intraperitoneally.
(§6) The values specified in Tables 4 and 5 hereinafter refer to milligrams per kilogram of body weight of the mouse.
(§7) Tests performed in accordance with the procedure described by Campbell and Richter in Acta Pharmacol. et Toxicol., vol. […] This is indicated by the results that are reported in Table 5 in which the headings A and F have the same significance as hereinbefore while the values in the column heading L pertain to the dose in milligrams per kilogram of body weight that was required to produce a lowering of the rectal temperature, which are values indicative of the depressant effect of a compound upon the central nervous system.

mice [7] = experiment: acute toxicity (LD50) in mice; assay type: in vivo, mouse; details: for relative toxicity compared with the 4-hydroxy compound (in words): 4β-esters compared with Compound No. 1246; for B - lethal dose (LD50) to mice, intraperitoneally: intraperitoneal; for B - lethal dose (LD50) to mice, intraperitoneally / A - lethal dose (LD50) to mice, per os: Table 3
Excerpt: as §1, §2, §3, §4, §5, §6, §7

mouse [8] = experiment: prolongation of narcosis produced by hexobarbital in mice; assay type: in vivo; details: for prolongation of narcosis produced by hexobarbital (in words): comparison of epimers; for E - dose which prolongs narcosis produced by hexobarbital in a mouse by a factor of 4: factor of 4, Table 3
Excerpt: (§8) In the Table 3 which follows are listed results of tests pertaining to the effectiveness of various compounds that are disclosed herein.

mice [9] = experiment: narcosis (lateral position) in mice; assay type: in vivo, mouse; details: mouse; for narcosis (in words): comparison of epimers; for ED50: ip, 0.05 h, read-out: D - narcosis (lateral position): dose (ED50) which produces narcosis for 3 minutes in 50% of the mice, intraperitoneal, narcosis for 3 minutes, Table 3
Excerpt: as §8

white mice [10] = experiment: ptosis test (Campbell and Richter screening); assay type: in vivo, mouse; details: for dose producing ptosis relative to the 4-hydroxy compound (in words): compared with Compound No. 1561; for F ptosis test: mouse, Table 5
Excerpt: The sedative and hypnotic effectiveness of the compounds of the invention were also ascertained by screening tests with white mice described by Campbell and Richter in Acta Pharmacol. et Toxicol. 25 (1967) page 345. In Table 4 the results of various specific screening tests are listed. These tests were as follows:
as §6, §7

mouse [11] = experiment: lowering of the rectal temperature in mice; assay type: in vivo; details: mouse; Table 5; read-out: L dose required to produce a lowering of the rectal temperature
Excerpt: as §6, §7

dogs = experiment: narcosis in dogs, intravenous; assay type: in vivo, dog; details: Canis lupus familiaris, narcosis for 1 hour, read-out: dose required to produce a narcosis that persisted for 1 hour
Procedure: In dogs a dose of 17.5 milligrams of the compound per kilogram of body weight administered intravenously was required to produce a narcosis that persisted for 1 hour.

[12] = acute toxicity in cats, intravenous; details: cat, in vivo, read-out: lethal dose (LD50) for cats
Procedure: (§9) The toxicity and narcotic effectiveness of this compound were determined in tests with cats and dogs. […] The intravenous administration of a dose equivalent to 5 milligrams per kilogram of body weight to cats produced a narcosis that persisted for 10 minutes, whereas doses of 10 and 15 milligrams per kilogram produced narcoses that persisted for 25 and 60 minutes, respectively.

cats = experiment: narcosis in cats, intravenous; assay type: in vivo, cat
Procedure: as §9

[13] = po, per os, Table 3, read-out: A - lethal dose (LD50) to mice, per os
[14] = po, per os, Table 5, read-out: A lethal dose (LD50) to mice, per os

## COC1OC2OC3(C)C(OC(=O)Nc4ccccc4)CC(C2C)C13 (stereo not drawn) [Example 17, 4β-(N-Phenylcarbamyloxy)-8-methoxy-3,10-dimethyl-2,9-dioxatricyclo[4.3.1.0^3,7]decane]
White mice [1]; % of the ED100 of atropine
  spasmolytic ED50 relative to the ED100 of atropine: 0.2%
White mice [1]; % of the ED100 of papaverine
  spasmolytic ED50 relative to the ED100 of papaverine: 0.1%
[2]
  narcosis (in words): did not produce narcosis
[3]
  LD50: 1500 mg/kg

## CCC(=O)OC1CC2C(C)C3OC(OC)C2C1(C)O3 (stereo not shown) [compound 2044]
Mouse [4]
  C - ataxia: dose required to produce ataxia in a mouse: 147 milligrams per kilogram of bod
Mouse [5]
  sedative effect or ataxia relative to the 4-hydroxy compound (in words): distinct increase in the sedative effect or ataxia
[6]; [13]
  LD50: 1470 mg/kg
Mice [7]
  relative toxicity compared with the 4-hydroxy compound (in words): reduction in the relative toxicity
Mice [7]; mouse
  B - lethal dose (LD50) to mice, intraperitoneally: 436 milligrams per kilogram of bod

## COC1OC2OC3(C)C(OC(=O)NC(C)C)CC(C2C)C13 (stereo not drawn) [Compound No. 2057, 4β-(N-Isopropylcarbamyloxy)-3,10-dimethyl-8-methoxy-2,9-dioxatricyclo[4.3.1.0^3,7]decane]
Mouse [4]
  dose required for producing ataxia: 147 milligrams per kilogram of body weight
  C - ataxia: dose required to produce ataxia in a mouse: 147 milligrams per kilogram of bod
Mouse [8]
  prolongation of narcosis produced by hexobarbital (in words): produces neither a narcosis nor a prolongation of narcosis produced by hexobarbital
Mice [9]
  narcosis (in words): produces neither a narcosis nor a prolongation of narcosis produced by hexobarbital
Mouse [5]
  sedative effect or ataxia relative to the 4-hydroxy compound (in words): distinct increase in the sedative effect or ataxia
Mice [7]
  relative toxicity compared with the 4-hydroxy compound (in words): reduction in the relative toxicity
Mice [7]; mouse
  B - lethal dose (LD50) to mice, intraperitoneally: 1000 milligrams per kilogram of bod
  A - lethal dose (LD50) to mice, per os: > 1470 milligrams per kilogram of bod

## CCC(=O)OC1CC2C(C)C3OC(OC)C2C1(C)O3 (stereo not shown) [compound 2081]
White mice [10]
  dose producing ptosis relative to the 4-hydroxy compound (in words): one-fourth or one-half of the dose required of the 4-hydroxy-compound
  F ptosis test: 200 milligrams per kilogram of bod
Mouse [4]
  C - ataxia: dose required to produce ataxia in a mouse: 50 milligrams per kilogram of bod
Mouse [8]
  E - dose which prolongs narcosis produced by hexobarbital in a mouse by a factor of 4: 316 milligrams per kilogram of bod
Mouse [5]
  sedative effect relative to the corresponding hydroxy compound (in words): greater sedative effect than the corresponding hydroxy compounds
[6]; [14]
  LD50: > 1470 mg/kg
Mice [7]; mouse
  B - lethal dose (LD50) to mice, intraperitoneally: 1379 milligrams per kilogram of bod
  A - lethal dose (LD50) to mice, per os: > 1470 milligrams per kilogram of bod
Mouse [11]
  minimal effective dose: 100 mg/kg

## CCNC(=O)OC1CC2C(C)C3OC(OC)C2C1(C)O3 (stereo not drawn) [Compound No. 2026, 4α-(N-Ethylcarbamyloxy)-8-methoxy-3,10-dimethyl-2,9-dioxatricyclo[4.3.1.0^3,7]decane]
Mouse [4]
  C - ataxia: dose required to produce ataxia in a mouse: 68.1 milligrams per kilogram of bod
Mouse [8]
  E - dose which prolongs narcosis produced by hexobarbital in a mouse by a factor of 4: 31.6 milligrams per kilogram of bod
Mice [9]
  ED50: 100 mg/kg
Mouse [5]
  sedative effect relative to the corresponding hydroxy compound (in words): greater sedative effect than the corresponding hydroxy compounds
Mice [7]; mouse
  B - lethal dose (LD50) to mice, intraperitoneally: 297 milligrams per kilogram of bod
  A - lethal dose (LD50) to mice, per os: 518 milligrams per kilogram of bod

## COC1OC2OC3(C)C(OC(C)=O)CC(C2C)C13 (stereo not drawn) [Compound No. 2080, 4α-Acetoxy-8-methoxy-3,10-dimethyl-2,9-dioxatricyclo[4.3.1.0^3,7]decane]
White mice [10]
  dose producing ptosis relative to the 4-hydroxy compound (in words): one-fourth or one-half of the dose required of the 4-hydroxy-compound
  F ptosis test: 100 milligrams per kilogram of bod
Mouse [4]
  C - ataxia: dose required to produce ataxia in a mouse: 50 milligrams per kilogram of bod
Mouse [5]
  sedative effect relative to the corresponding hydroxy compound (in words): greater sedative effect than the corresponding hydroxy compounds
[6]; [14]
  LD50: 1470 mg/kg
Mice [7]; mouse
  B - lethal dose (LD50) to mice, intraperitoneally: > 1000 milligrams per kilogram of bod
  A - lethal dose (LD50) to mice, per os: > 1470 milligrams per kilogram of bod
Mouse [11]
  minimal effective dose: 400 mg/kg

## CCNC(=O)OC1CC2C(C)C3OC(OC)C2C1(C)O3 (stereo not shown) [compound 1767]
Mouse [4]
  C - ataxia: dose required to produce ataxia in a mouse: 400 milligrams per kilogram of bod
Mouse [5]
  sedative effect or ataxia relative to the 4-hydroxy compound (in words): distinct increase in the sedative effect or ataxia
Mice [7]
  relative toxicity compared with the 4-hydroxy compound (in words): reduction in the relative toxicity
Mice [7]; mouse
  B - lethal dose (LD50) to mice, intraperitoneally: 890 milligrams per kilogram of bod
  A - lethal dose (LD50) to mice, per os: > 1500 milligrams per kilogram of bod

## COC1OC2OC3(C)C(OC(C)=O)CC(C2C)C13 (stereo not shown) [compound 2045]
Mouse [4]
  C - ataxia: dose required to produce ataxia in a mouse: 200 milligrams per kilogram of bod
Mouse [8]
  E - dose which prolongs narcosis produced by hexobarbital in a mouse by a factor of 4: 316 milligrams per kilogram of bod
Mouse [5]
  sedative effect or ataxia relative to the 4-hydroxy compound (in words): distinct increase in the sedative effect or ataxia
[6]; ip, intraperitoneal, Table 3, read-out: B - lethal dose (LD50) to mice, intraperitoneally
  LD50: 1000 mg/kg
[6]; [13]
  LD50: 1470 mg/kg
Mice [7]
  relative toxicity compared with the 4-hydroxy compound (in words): reduction in the relative toxicity

## C=C1C2OC(OC)C3C1CC(OC(=O)NCC)C3(C)O2 (stereo not drawn) [Compound No. 2076, 4α-(N-Ethylcarbamyloxy)-8-methoxy-3-methyl-10-methylene-2,9-dioxatricyclo[4.3.1.0^3,7]decane]
Mouse [4]; 2067 versus 2076
  doses effective in producing ataxia (in words): identical doses are effective in producing ataxia
Mouse [4]
  C - ataxia: dose required to produce ataxia in a mouse: 50 milligrams per kilogram of bod
dogs
  minimal effective dose: 17.5 mg/kg
Mouse [8]
  prolongation of narcosis produced by hexobarbital (in words): does not prolong narcosis produced by hexobarbital
Mice [9]
  ED50: < 100 mg/kg
  narcosis (in words): produces narcosis
[12]
  LD50: 226 mg/kg
cats; 5 mg/kg
  duration of narcosis: 10 min
cats; 10 mg/kg
  duration of narcosis: 25 min
cats; 15 mg/kg
  duration of narcosis: 60 min
Mice [7]; mouse
  B - lethal dose (LD50) to mice, intraperitoneally: 527 milligrams per kilogram of bod
  A - lethal dose (LD50) to mice, per os: 1025 milligrams per kilogram of bod
Mice [7]; mouse, 2067 versus 2076
  toxicity of the epimers (in words): substantially the same toxicity
